Data published in patent publication US6399542B1, “Alkoxyimino-substituted bicyclic compounds compositions containing the same and method of making such compounds” (Agro-Kanesho Co., Ltd., priority 1997, dated 2002).
Values joined by “and” are separate entries in the source; they are usually repeats but may differ in a detail not shown here. Equal values may be shown once. Read-outs that look alike come from different tables or passages of the source.

Key:
Format in all cases: in vivo
[1] = system: Psecidoperonospora cubensis; assay: Effect on Cucumber downy mildew (preventive spray test); conditions: 7 days after inoculation
Chochliobolus miyabeanus = assay: Effect on Rice brown spot (preventive spray test); conditions: 7 days after inoculation
Puccinia recondita = assay: Effect on Wheat brown rust (preventive spray test); conditions: 7 days after inoculation
Erysiphe graminis = assay: Effects on Barley powdery mildew (preventive spray test); conditions: lesions counted seven days after inoculation
Phytophthora infestans = conditions: Tomato late blight, 5 days after inoculation
Pyricularia oryzae = conditions: Rice blast, 7 days after inoculation
[2] = conc. of active ingredient 4 ppm
[3] = conc. of active ingredient 20 ppm
[4] = conc. of active ingredient 100 ppm

Structure (SMILES) | Preventive rate (%) [1, 2] [%] | Preventive rate (%) [1, 3] [%] | Preventive rate (%) [1, 4] [%] | Preventive rate (%) (Chochliobolus miyabeanus; [2]) | Preventive rate (%) (Chochliobolus miyabeanus; [3]) | Preventive rate (%) (Chochliobolus miyabeanus; [4]) | Preventive rate (%) (Puccinia recondita; [2]) | Preventive rate (%) (Puccinia recondita; [3]) | Preventive rate (%) (Puccinia recondita; [4]) | Preventive rate (%) (Erysiphe graminis; [3]) | Preventive rate (%) (Erysiphe graminis; [4]) | Preventive rate (%) (Phytophthora infestans; [2]) | Preventive rate (%) (Phytophthora infestans; [3]) | Preventive rate (%) (Phytophthora infestans; [4]) | Preventive rate (%) (Pyricularia oryzae; [2]) | Preventive rate (%) (Pyricularia oryzae; [3]) | Preventive rate (%) (Pyricularia oryzae; [4]) | Preventive rate (%) (Erysiphe graminis; [2])
CNC(=O)C(=NOC)c1ccccc1COc1ccc2c(c1C)CC(C)C2=NOC (racemic) [f-4] | 100 | 100 | 100 | 68 | 70 | 90 |  |  |  |  |  |  |  |  |  |  |  | 
COC=C(C(=O)OC)c1ccccc1COc1ccc2c(c1)CCC2=NO [e-1] |  |  |  | 87 |  |  |  |  |  |  |  |  |  |  |  |  |  | 
CO/C=C(/C(=O)OC)c1ccccc1COc1ccc2c(c1)OCCC2=NOC [c-2] |  | 97 | 100 |  |  |  | 93 | 100 | 100 | 100 | 100 | 84 | 98% | 98 |  |  |  | 
CNC(=O)C(=NOC)c1ccccc1COc1cc2c(cc1C)C(=NOC)C(C)C2 (single isomer, unassigned) [f-11] | 100 | 100 | 100 |  |  |  | 100 | 100 | 100 | 100 | 100 | 100 | 100% | 100 | 72 | 83 | 100 | 100
CON=C(C(=O)OC)c1ccccc1COc1cc2c(cc1C)C(=NOC)C(C)C2 (single isomer, unassigned) [f-10] |  |  | 100 |  |  |  |  |  |  |  |  |  | 97% | 98 | 85 | 85 | 90 | 
CON=C(C(=O)OC)c1ccccc1COc1ccc2c(c1C)OC(C)(C)CC2=NOC [d-6] |  |  |  |  |  |  |  | 92 | 99 |  |  |  |  |  | 71 | 77 | 92 | 
CNC(=O)C(=NOC)c1ccccc1COc1ccc2c(c1C)OCCC2=NOCC=CCl [c-62] |  |  |  |  |  |  | 100 | 100 | 100 | 100 | 100 |  | 100% | 100 |  |  |  | 96
C=C(Cl)CON=C1COc2c1ccc(OCc1ccccc1/C(=N\OC)C(=O)NC)c2C [a-64] | 100 | 100 | 100 |  |  |  | 100 | 100 | 100 | 98 | 100 |  | 84% | 100 |  |  |  | 94
CNC(=O)/C(=N/OC)c1ccccc1COc1ccc2c(c1C)OCC2=NOCC=C(C)C [a-67] |  | 100 | 100 |  |  |  | 100 | 100 | 100 |  |  |  | 88% | 100 |  |  |  | 
C#CCON=C1CCc2c1ccc(OCc1ccccc1C(=NOC)C(=O)NC)c2C [e-61] | 100 | 100 | 100 | 84 | 90 | 90 | 100 | 100 | 100 | 98 |  |  | 98% | 100 |  |  |  | 
C=CCON=C1COc2c1ccc(OCc1ccccc1/C(=N\OC)C(=O)NC)c2C [a-60] | 100 | 100 | 100 |  |  |  | 100 | 100 | 100 | 100 | 100 |  | 97% | 97 |  | 86 | 91 | 
CNC(=O)C(=NOC)c1ccccc1COc1ccc2c(c1)CCC2=NOCC=CCl [e-58] | 100 | 100 | 100 |  |  |  |  | 100 | 100 | 100 | 100 |  | 92% and 98% | 100 |  |  |  | 
C=C(Cl)CON=C1CCOc2c1ccc(OCc1ccccc1C(=NOC)C(=O)NC)c2C [c-64] |  |  |  |  |  |  | 99 | 99 | 100 | 96 | 100 |  |  |  |  | 80 | 98 | 
CO/C=C(/C(=O)OC)c1ccccc1COc1ccc2c(c1C)OC(C)C2=NOC (single isomer, unassigned) [b-5] |  |  |  |  |  |  | 100 | 100 | 100 | 98 | 100 |  | 91% | 97 |  | 84 | 95 | 98
CON=C1CCc2cc(OCc3ccccc3C(=NOC)C(=O)OC)c(C)cc21 [e-26] | 75 | 100 | 100 |  | 71 | 91 |  | 98 | 98 | 100 | 100 |  | 97% | 100 |  |  |  | 
CO/C=C(/C(=O)OC)c1ccccc1COc1ccc2c(c1C)OC(C)C2=NOC (single isomer, unassigned) [b-4] |  |  |  |  |  |  | 100 | 100 | 100 | 100 | 100 |  | 97% | 97 |  | 89 | 95 | 98
CCCCON=C1CCOc2c1ccc(OCc1ccccc1C(=NOC)C(=O)NC)c2C [c-58] |  |  |  |  |  |  | 98 | 100 | 100 | 98 | 100 |  |  | 100 |  |  |  | 
COC=C(C(=O)OC)c1ccccc1COc1ccc2c(c1C)OC(C)CC2=NOC (racemic) [d-8] |  |  |  |  |  |  | 100 | 100 | 100 | 100 | 100 |  |  |  | 77 | 83 | 100 | 100
